The target in test [1] is T1, bovine testes hyaluronidase (BTH) (Bos taurus, UniProt Q2YDK3).
T1 sequence (Q2YDK3 36-553): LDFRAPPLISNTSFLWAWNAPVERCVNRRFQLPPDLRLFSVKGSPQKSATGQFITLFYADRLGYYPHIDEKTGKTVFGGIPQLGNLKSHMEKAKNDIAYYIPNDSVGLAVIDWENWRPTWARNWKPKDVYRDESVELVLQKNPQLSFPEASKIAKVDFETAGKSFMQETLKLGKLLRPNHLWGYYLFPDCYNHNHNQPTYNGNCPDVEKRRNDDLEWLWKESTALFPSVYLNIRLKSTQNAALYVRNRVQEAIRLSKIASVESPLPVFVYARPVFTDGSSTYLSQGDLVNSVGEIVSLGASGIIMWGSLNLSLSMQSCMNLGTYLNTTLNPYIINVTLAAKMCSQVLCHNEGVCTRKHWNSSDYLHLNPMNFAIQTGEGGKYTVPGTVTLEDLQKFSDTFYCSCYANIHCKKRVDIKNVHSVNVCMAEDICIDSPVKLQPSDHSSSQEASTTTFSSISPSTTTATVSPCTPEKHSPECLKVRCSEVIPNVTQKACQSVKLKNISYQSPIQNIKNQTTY
Kind of test: Morgan-Elson assay at pH […]. Type of test: biochemical. Particulars: read-out: IC50 [μM] / 3.5.

The target in test [2] is T1, bovine testes hyaluronidase (BTH). Kind of test: stains-all assay at pH […] and Morgan-Elson assay at pH […]. The class given is biochemical. Particulars: read-out: IC50 [μM] / pH7.

The text below walks through data of publication PMC6245189 (Molecules, 2008).

As for `CCCCCCCCCCCCCCCC(=O)OC[C@H](O)[C@H]1OC(=O)C(O)=C1O` [6-palmitoyl-L-ascorbic acid], the IC50 in test [1] was determined as 8 µM.

Turning to `Oc1ccc(-c2[nH]c3ccccc3c2-c2ccccc2)cc1` [compound 12, 4-(3-Phenyl-1H-indol-2-yl)phenol], the IC50 in test [2] came to 107 µM.
